# Results as given in patent publication US20260097049A1, “C[…] AND METHODS OF USE FOR TREATMENT AND PREVENTION OF CANCER” (BlackStone Therapeutics, LLC, priority 2022, published 2026).
# Where “and” joins values, the source holds several entries; their conditions need not be identical. Equal entries are not always repeated. Where two headings read alike, the source gives them in different places.
# Assays:
# [1] = system: PANC-1, HPAF-II, AsPC-1, and MIA-PaCa2; experiment: Cell killing against various cancer cell lines; format: cell-based; conditions: all cancer cells tested
# Method: Various compounds, including (R)-H4CBD and (S)-H4CBD, and H4CBDV racemic mixture, were tested for cell killing against various cancer cell lines, including PANC-1, HPAF-II, AsPC-1, and MIA-PaCa2.
# [2] = Pharmacokinetics in CD1 male mice (plasma, HPLC-MS); format: in vivo; conditions: for MRT inf: read-out: MRTInf—obs; for Vd: read-out: Vss—obs
# Method: Formulation and dosing information for pharmacokinetic data is provided in Table 5 (CD=beta-cyclodextrin). The solutions were sonicated, vortexed, and slightly heated resulting in a clear purple liquid.
# Pharmacokinetic data was produced by administering CD1 male mice with CCL-104 (H4CBD) or CCL-106 (H4CBDV). Each compound was formulated and administered as shown in Example 3. Plasma was sampled from the IV administered mice at 5 min, 15 min, 30 min, 1 hr, 2 hr, 4 hr post dose. Plasma was sampled from the PO administered mice at 15 min, 30 min, 1 hr, 2 hr, 4 hr, 6 hr post dose. The desired serial concentrations of working solutions were achieved by diluting stock solution of analyte with 50% acetonitrile in water solution. 10 μL of working solutions (0.5, 1, 2, 5, 10, 50, 100, 500, 1000 ng/mL) were added to 10 μL of the blank male CD1 mice plasma to achieve calibration standards of 0.5-1000 ng/mL (0.5, 1, 2, 5, 10, 50, 100, 500, 1000 ng/mL) in a total volume of 20 μL. Six quality control samples at 1 ng/mL, 2 ng/mL, 5 ng/mL, 10 ng/mL, 50 ng/mL and 800 ng/mL for plasma were prepared independently of those used for the calibration curves. These QC samples were prepared on the day of analysis in the same way as calibration standards. 20 μL standards, 20 μL QC samples and 20 μL unknown samples (10 μL plasma with 10 μL blank solution) were added to 200 μL of methanol containing IS mixture for precipitating protein respectively. Then the samples were vortexed for 30 seconds, then centrifuged at 4° C., 4,000 rpm for 15 min. The supernatant was diluted with water at a ratio of 1:2. 15 μL of the diluted supernatant was injected into the LC/MS/MS system for quantitative analysis.
# AsPC-1 = experiment: CellTiterGlo cell viability, AsPC-1 cells; format: cell-based; conditions: Homo sapiens, ASPC1, 72 h
# Method: (§1) The IC50 values for (R)-H4CBD, (S)-H4CBD, H4CBDV racemic mixture, and bortezomib were determined. Compound treatment of cells started one day after seeding with a final DMSO concentration of 0.1% and was performed by nanodrop-dispensing using a Tecan Dispenser. 0.1% DMSO (solvent) and Staurosporine (1,0E-05M) served as high control (100% viability) and low control (0% viability), respectively. For the assays, cells were seeded in white cell culture-treated flat and clear bottom multiwell plates and incubated at 37° C. overnight before compounds were added. After incubation for 72 h at 37° C. at 5% or 10% CO2 dependent on the medium, cell plates were equilibrated to room temperature for one hour, CellTiterGlo reagent (Promega) was added and luminescence was measured approximately an hour later using a luminometer.
# (§2) Raw data were converted into percent cell viability relative to the high and low control, which were set to 100% and 0%, respectively. IC50 calculation was performed using GraphPad Prism software with a variable slope sigmoidal response fitting model using 0% viability as bottom constraint and 100% viability as top constraint. IC50 results in PANC-1, MIA-PaCa2, and AsPC-1 cells for (R)-H4CBD, (S)-H4CBD, H4CBDV racemic mixture, and bortezomib are shown in FIGS. 10-12 and Table 2
# MiaPaCA-2 = experiment: CellTiterGlo cell viability, MiaPaCA-2 cells; format: cell-based; conditions: Homo sapiens, MIA PaCa-2, 72 h
# Method: as §1, §2
# [3] = system: A549 Lung Carcinoma Epithelial Cells (CCL-185 from ATCC); experiment: Percent viability of lung carcinoma cells; format: cell-based; conditions: Homo sapiens, A549, read-out: Percent viability of cells, Mean (%)
# Method: GR-X1=H4CBDV, GR-X2=(R)-H4CBD, GR-X3=(S)-H4CBD, GR-X4=HHC.
# The IC50 of the hydrogenated cannabivarin, hexahydrocannabidivarin (H4CBDV), (R)-H4CBD, (S)-H4CBD, HHC racemic mixture, and gemcitabine, paclitaxel, and 5-fluorouracil were determined in lung carcinoma cells (A549 Lung Carcinoma Epithelial Cells (CCL-185 from ATCC)) as shown in FIGS. 39-43 and Table 3.
# [4] = IV 10 mg/kg, individual mouse, 10 mg/kg
# [5] = PO 10 mg/kg, individual mouse, 10 mg/kg
# [6] = male, CD1, mouse, plasma, iv, 10 mg/kg, IV 10 mg/kg, Mean of 4 mice
# [7] = male, CD1, mouse, plasma, iv, 10 mg/kg, IV 10 mg/kg, individual mouse
# [8] = male, CD1, mouse, plasma, po, 10 mg/kg, PO 10 mg/kg, Mean of 4 mice
# [9] = male, CD1, mouse, plasma, po, 10 mg/kg, PO 10 mg/kg, individual mouse
smiles,measurement,setting,value
"CCCc1cc(O)c(C2CC(C)CCC2C(C)C)c(O)c1 (racemic) [CCL-106, hexahydrocannabidivarin]",cytotoxicity against cancer cells,[1],shows cytotoxicity against all cancer cells tested
same,AUClast/D (h*mg/mL),"[2]; IV 10 mg/kg, Mean of 4 mice",184 h*ng/mL per mg/kg
same,AUC—% Extrap—obs,"[2]; IV 10 mg/kg, Mean of 4 mice",18.4%
same,Cl_obs,"[2]; IV 10 mg/kg, Mean of 4 mice",74.7 mL/min/kg
same,AUCInf,[2]; [4],2519 ng·h/mL and 2031 ng·h/mL and 2513 ng·h/mL
same,AUClast,[2]; [4],2047 ng·h/mL and 1630 ng·h/mL and 1952 ng·h/mL
same,AUC—% Extrap—obs,[2]; [4],12.7% and 18.7% and 19.8% and 22.3%
same,C0,[2]; [4],4701 ng/mL and 5792 ng/mL and 5062 ng/mL
same,Cl_obs,[2]; [4],84.1 mL/min/kg and 66.2 mL/min/kg and 82.1 mL/min/kg and 66.3 mL/min/kg
same,MRTInf—obs,[2]; [4],2.11 h and 2.16 h and 2.49 h
same,T1/2,[2]; [4],2.14 h and 2.50 h and 2.99 h
same,Vss—obs,[2]; [4],8.38 L/kg and 10.7 L/kg and 9.89 L/kg
same,AUClast/D (h*mg/mL),"[2]; PO 10 mg/kg, Mean of 4 mice",31.6 h*ng/mL per mg/kg
same,AUC—% Extrap—obs,"[2]; PO 10 mg/kg, Mean of 4 mice",25.7%
same,AUCInf,[2]; [5],404 ng·h/mL and 453 ng·h/mL and 479 ng·h/mL
same,AUClast,[2]; [5],308 ng·h/mL and 414 ng·h/mL and 226 ng·h/mL
same,AUC—% Extrap—obs,[2]; [5],18.1% and 23.7% and 8.47% and 52.7%
same,Cmax,[2]; [5],233 ng/mL and 177 ng/mL and 352 ng/mL and 127 ng/mL
same,F (%),[2]; [5],16.7% and 20.0% and 12.3%
same,MRTInf—obs,[2]; [5],3.27 h and 4.01 h and 2.21 h and 10.3 h
same,T1/2,[2]; [5],3.20 h and 3.31 h and 2.04 h and 8.02 h
same,AUC(0-inf),[2]; [6],2260 ng·h/mL
same,AUC(0-t),[2]; [6],1840 ng·h/mL
same,half-life,[2]; [6],2.32 h
same,C0,"[2]; male, CD1, mouse, plasma, iv, 10 mg/kg, IV 10 mg/kg, Mean of 4 mice, read-out: C0",4820 ng/mL
same,MRT inf,[2]; [6],2.1 h
same,Vd,[2]; [6],9.3 L/kg
same,AUC(0-inf),[2]; [7],1980 ng·h/mL
same,AUC(0-t),[2]; [7],1730 ng·h/mL
same,half-life,[2]; [7],1.63 h
same,C0,"[2]; male, CD1, mouse, plasma, iv, 10 mg/kg, IV 10 mg/kg, individual mouse, read-out: C0",3720 ng/mL
same,MRT inf,[2]; [7],1.62 h
same,Vd,[2]; [7],8.18 L/kg
same,AUC(0-inf),[2]; [8],429 ng·h/mL
same,AUC(0-t),[2]; [8],316 ng·h/mL
same,Tmax,[2]; [8],0.25 h
same,bioavailability,[2]; [8],16.5%
same,half-life,[2]; [8],4.14 h
same,Cmax,"[2]; male, CD1, mouse, plasma, po, 10 mg/kg, PO 10 mg/kg, Mean of 4 mice, read-out: Cmax",222 ng/mL
same,MRT inf,[2]; [8],4.9 h
same,AUC(0-inf),[2]; [9],383 ng·h/mL
same,AUC(0-t),[2]; [9],314 ng·h/mL
same,Tmax,[2]; [9],0.25 h
same,bioavailability,[2]; [9],16.9%
same,IC50,AsPC-1,1050 nM
same,IC50,MiaPaCA-2,530 nM
same,viability at 1.56 µM,[3]; agent concentration 1.56 uM,92.1%
same,viability at 3.12 µM,[3]; agent concentration 3.12 uM,95.2%
same,viability at 6.25 µM,[3]; agent concentration 6.25 uM,93.4%
same,viability at 12.5 µM,[3]; agent concentration 12.5 uM,93.6%
same,viability at 25 µM,[3]; agent concentration 25 uM,21.5%
same,viability at 50 µM,[3]; agent concentration 50 uM,5.65%
